SMILES strings stand for the structures.

This assay is described as follows: HCV replicon assay (luciferase) in ET (Huh-lucubineo-ET) cell line. Format: cell-based. Conditions: Hepatitis C virus, inhibition of replication relative to no compound control, ET replicon cells, luciferase 48-72 hours; for inhibition at 10 µM: tested at 10 μM, read-out: % inhition at 10 μM; for inhibition at 5 µM: tested at 5 μM.

For the molecule `CCCC(F)(F)c1ccc(-c2cc(Cn3cc4nc(-c5cccc(F)c5F)nc-4cn3)on2)cc1` [Compound 316, 5-{3-[4-(1,1-Difluoro-butyl)-phenyl]-isoxazol-5-ylmethyl}-2-(2,3-difluoro-phenyl)-5H-imidazo[4,5-d]pyridazine], the inhibition at 10 µM was 99.7%.

With `Fc1cccc(-c2nc3cnn(Cc4cc(-c5ccc(OCC(F)(F)F)cc5)no4)cc-3n2)c1F` [Compound 295, 2-(2,3-Difluoro-phenyl)-5-{3-[4-(2,2,2-trifluoro-ethoxy)-phenyl]-isoxazol-5-ylmethyl}-5H-imidazo[4,5-d]pyridazine], the inhibition at 10 µM worked out at 100%.

As to `N#Cc1ccc(-c2cc(Cn3cc4nc(-c5ccccc5F)nc-4cn3)on2)cc1` [Compound 284, 4-{5-[2-(2-Fluoro-phenyl)-imidazo[4,5-d]pyridazin-5-ylmethyl]-isoxazol-3-yl}-benzonitrile], the inhibition at 10 µM came out at 77.4%.

For `CC(C)Oc1ccc(-c2cc(Cn3cc4nc(-c5cccc(F)c5F)nc-4cn3)on2)cc1` [Compound 102, 2-(2,3-Difluoro-phenyl)-5-[3-(4-isopropoxy-phenyl)-isoxazol-5-ylmethyl]-5H-imidazo[4,5-d]pyridazine], the inhibition at 5 µM is 99.8% and the inhibition at 10 µM stood at 99.7%.

Regarding `Oc1nn(Cc2cc(-c3ccc(C(F)(F)F)cc3C(F)(F)F)no2)cc2nc(-c3cccc(F)c3F)nc1-2` [Compound 262, 6-[3-(2,4-Bis-trifluoromethyl-phenyl)-isoxazol-5-ylmethyl]-2-(2,3-difluoro-phenyl)-6H-imidazo[4,5-d]pyridazin-4-ol], the inhibition at 10 µM was 96.6%.

As for `COCCCOc1ccc(-c2cc(Cn3cc4nc(-c5cccc(F)c5F)nc-4cn3)on2)cc1` [Compound 312, 2-(2,3-Difluoro-phenyl)-5-{3-[4-(3-methoxy-propoxy)-phenyl]-isoxazol-5-ylmethyl}-5H-imidazo[4,5-d]pyridazine], the inhibition at 10 µM was determined as 98.1%.

For `COc1ccc(-c2cc(Cn3cc4nc(-c5cccc(F)c5F)nc-4cn3)on2)c(O)c1` [Compound 166, 2-{5-[2-(2,3-Difluoro-phenyl)-imidazo[4,5-d]pyridazin-5-ylmethyl]-isoxazol-3-yl}-5-methoxy-phenol], the inhibition at 10 µM came out at 70.7%.

Consider `CC(=O)c1ccc(F)c(-c2nc3cnn(Cc4cc(-c5ccc(C(F)(F)F)cc5C(F)(F)F)no4)cc-3n2)c1` [Compound 137, 1-(3-{5-[3-(2,4-Bis-trifluoromethyl-phenyl)-isoxazol-5-ylmethyl]-5H-imidazo[4,5-d]pyridazin-2-yl}-4-fluoro-phenyl)-ethanone], for which the inhibition at 10 µM was found to be 40.4%.

As for `Fc1cccc(-c2nc3cnn(Cc4cc(-c5ccc(OC(F)F)cc5OC(F)F)no4)cc-3n2)c1F` [Compound 169, 5-[3-(2,4-Bis-difluoromethoxy-phenyl)-isoxazol-5-ylmethyl]-2-(2,3-difluoro-phenyl)-5H-imidazo[4,5-d]pyridazine], the inhibition at 10 µM is 83.6%.

In the case of `Fc1ccccc1-c1nc2cnn(Cc3cc(-c4ccc(OC(F)(F)F)cc4)no3)cc-2n1` [Compound 108, 2-(2-Fluoro-phenyl)-5-[3-(4-trifluoromethoxy-phenyl)-isoxazol-5-ylmethyl]-5H-imidazo[4,5-d]pyridazine], the inhibition at 5 µM is 99.9% and the inhibition at 10 µM worked out at 100%.

Take `FC(F)(F)c1ccc(-c2nc3cnn(Cc4cc(-c5ccc(C(F)(F)F)cc5C(F)(F)F)no4)cc-3n2)cc1` [Compound 135, 5-[3-(2,4-Bis-trifluoromethyl-phenyl)-isoxazol-5-ylmethyl]-2-(4-trifluoromethyl-phenyl)-5H-imidazo[4,5-d]pyridazine]: the inhibition at 10 µM was 0.79%.

For the molecule `CCCOc1ccc(-c2cc(Cn3cc4nc(-c5ccc(F)cc5)nc-4cn3)on2)cc1` [Compound 145, 2-(4-Fluoro-phenyl)-5-[3-(4-propoxy-phenyl)-isoxazol-5-ylmethyl]-5H-imidazo[4,5-d]pyridazine], the inhibition at 10 µM stood at 85.6%.

`COc1ccc(-c2cc(Cn3cc4nc(-c5cccc(F)c5F)nc-4cn3)on2)c(OC)c1` [Compound 294, 2-(2,3-Difluoro-phenyl)-5-[3-(2,4-dimethoxy-phenyl)-isoxazol-5-ylmethyl]-5H-imidazo[4,5-d]pyridazine]: the inhibition at 10 µM was found to be 50%.

For the molecule `Fc1ccccc1-c1nc2cnn(Cc3cc(-c4ccc(I)cc4)no3)cc-2n1` [Compound 282, 2-(2-Fluoro-phenyl)-5-[3-(4-iodo-phenyl)-isoxazol-5-ylmethyl]-5H-imidazo[4,5-d]pyridazine], the inhibition at 10 µM was 83.4%.

In the case of `CCOc1ccc(-c2cc(Cn3cc4nc(-c5cccc(F)c5F)nc-4cn3)on2)cc1` [Compound 220, 2-(2,3-Difluoro-phenyl)-5-[3-(4-ethoxy-phenyl)-isoxazol-5-ylmethyl]-5H-imidazo[4,5-d]pyridazine], the inhibition at 10 µM was 99.7%.

As to `CC(c1cc(-c2ccc(C(F)(F)F)cc2C(F)(F)F)no1)n1cc2nc(-c3cccc(F)c3F)nc-2cn1` (stereo not drawn) [Compound 226, 5-{1-[3-(2,4-Bis-trifluoromethyl-phenyl)-isoxazol-5-yl]-ethyl}-2-(2,3-difluoro-phenyl)-5H-imidazo[4,5-d]pyridazine], the inhibition at 10 µM was 99.7%.

Regarding `Fc1cccc(-c2nc3cnn(Cc4cc(-c5ccc(OCc6cccnc6)cc5)no4)cc-3n2)c1F` [Compound 179, 2-(2,3-Difluoro-phenyl)-5-{3-[4-(pyridin-3-ylmethoxy)-phenyl]-isoxazol-5-ylmethyl}-5H-imidazo[4,5-d]pyridazine], the inhibition at 10 µM was 99.9%.

Take `Fc1cccc(-c2nc3cnn(Cc4cc(-c5ccc(OCc6ccccn6)cc5)no4)cc-3n2)c1F` [Compound 172, 2-(2,3-Difluoro-phenyl)-5-{3-[4-(pyridin-2-ylmethoxy)-phenyl]-isoxazol-5-ylmethyl}-5H-imidazo[4,5-d]pyridazine]: the inhibition at 10 µM came to 95.4%.

In the case of `O=C(COc1ccc(-c2cc(Cn3cc4nc(-c5cccc(F)c5F)nc-4cn3)on2)c(C(F)(F)F)c1)N1CCCCC1` [Compound 325, 2-(4-{5-[2-(2,3-Difluoro-phenyl)-imidazo[4,5-d]pyridazin-5-ylmethyl]-isoxazol-3-yl}-3-trifluoromethyl-phenoxy)-1-piperidin-1-yl-ethanone], the inhibition at 10 µM was found to be 8.2%.

As for `Cc1ccc(-c2cc(Cn3cc4nc(-c5cccc(F)c5F)nc-4cn3)on2)c(C)c1` [Compound 309, 2-(2,3-Difluoro-phenyl)-5-[3-(2,4-dimethyl-phenyl)-isoxazol-5-ylmethyl]-5H-imidazo[4,5-d]pyridazine], the inhibition at 10 µM was found to be 100%.

On to `FC(F)(F)c1ccc(-c2cc(Cn3cc4nc(N5Cc6ccccc6C5)nc-4cn3)on2)c(C(F)(F)F)c1` [Compound 261, 5-[3-(2,4-Bis-trifluoromethyl-phenyl)-isoxazol-5-ylmethyl]-2-(1,3-dihydro-isoindol-2-yl)-5H-imidazo[4,5-d]pyridazine], for which the inhibition at 10 µM was determined as 73.9%.

As to `FC(F)(F)c1ccc(-c2cc(Cn3cc4nc(-c5ccco5)nc-4cn3)on2)c(C(F)(F)F)c1` [Compound 142, 5-[3-(2,4-Bis-trifluoromethyl-phenyl)-isoxazol-5-ylmethyl]-2-furan-2-yl-5H-imidazo[4,5-d]pyridazine], the inhibition at 10 µM is 66.3%.

As to `Fc1cccc(-c2nc3cnn(Cc4onc(-c5ccc(C(F)(F)F)cc5C(F)(F)F)c4Br)cc-3n2)c1F` [Compound 292, 5-[3-(2,4-Bis-trifluoromethyl-phenyl)-4-bromo-isoxazol-5-ylmethyl]-2-(2,3-difluoro-phenyl)-5H-imidazo[4,5-d]pyridazine], the inhibition at 10 µM is 64.1%.

Consider `Cc1csc(-c2cc(Cn3cc4nc(-c5cccc(F)c5F)nc-4cn3)on2)n1` [Compound 180, 2-(2,3-Difluoro-phenyl)-5-[3-(4-methyl-thiazol-2-yl)-isoxazol-5-ylmethyl]-5H-imidazo[4,5-d]pyridazine], for which the inhibition at 10 µM turned out to be 83.3%.

Regarding `FC(F)(F)c1ccc(-c2cc(Cn3cc4nc(NCCc5ccccc5)nc-4cn3)on2)c(C(F)(F)F)c1` [Compound 256, {5-[3-(2,4-Bis-trifluoromethyl-phenyl)-isoxazol-5-ylmethyl]-5H-imidazo[4,5-d]pyridazin-2-yl}-phenethyl-amine], the inhibition at 10 µM was determined as 9.34%.

Turning to `FC(F)(F)c1ccc(-c2cc(Cn3cc4nc(Nc5ccccc5)nc-4cn3)on2)c(C(F)(F)F)c1` [Compound 248, {5-[3-(2,4-Bis-trifluoromethyl-phenyl)-isoxazol-5-ylmethyl]-5H-imidazo[4,5-d]pyridazin-2-yl}-phenyl-amine], the inhibition at 10 µM came to 15.5%.

In the case of `Fc1cccc(-c2nc3cnn(Cc4cc(-c5ccc(OCCN6CCOCC6)cc5)no4)cc-3n2)c1F` [Compound 196, 2-(2,3-Difluoro-phenyl)-5-{3-[4-(2-morpholin-4-yl-ethoxy)-phenyl]-isoxazol-5-ylmethyl}-5H-imidazo[4,5-d]pyridazine], the inhibition at 10 µM was 89%.

Turning to `Fc1cccc(-c2nc3cnn(Cc4noc(-c5ccc(C(F)(F)F)cc5)n4)cc-3n2)c1F` [Compound 230, 2-(2,3-Difluoro-phenyl)-5-[5-(4-trifluoromethyl-phenyl)-[1,2,4]oxadiazol-3-ylmethyl]-5H-imidazo[4,5-d]pyridazine], the inhibition at 10 µM was 35.8%.

`Fc1cccc(-c2nc3cnn(Cc4cc(-c5ccc(OC(F)(F)F)cc5)no4)cc-3n2)c1F` [Compound 214, 2-(2,3-Difluoro-phenyl)-5-[3-(4-trifluoromethoxy-phenyl)-isoxazol-5-ylmethyl]-5H-imidazo[4,5-d]pyridazine]: the inhibition at 10 µM came to 98.5%.

For the molecule `CCCOC(=O)c1cc(-c2cc(Cn3cc4nc(-c5cccc(F)c5F)nc-4cn3)on2)ccc1OCCC` [Compound 197, 5-{5-[2-(2,3-Difluoro-phenyl)-imidazo[4,5-d]pyridazin-5-ylmethyl]-isoxazol-3-yl}-2-propoxy-benzoic acid propyl ester], the inhibition at 10 µM came to 54.1%.

Consider `Fc1cccc(-c2nc3cnn(Cc4cc(-c5ccc(C(F)(F)F)cc5)on4)cc-3n2)c1F` [Compound 241, 2-(2,3-Difluoro-phenyl)-5-[5-(4-trifluoromethyl-phenyl)-isoxazol-3-ylmethyl]-5H-imidazo[4,5-d]pyridazine], for which the inhibition at 10 µM was 99.7%.

(Values after patent US20090197880A1 (Genelabs Technologies, Inc., priority 2007, published 2009).)
